The values below come from patent US20250057772A1, “ORAL DOSAGE FORM WITH IONICALLY CHARGEABLE HYDROGEL FOR DELIVERY OF ACTIVE AGENT” (Entrega Inc., priority 2022, published 2025).

Data set [1] in a line: Evans Blue exclusion procedure. Particulars: 0.125 mg/mL Evans Blue in FASSIF buffer pH 7, hydrogel #12.035 for 40, 60, 80, 90% fluid uptake; p<0.001 vs no hydrogel. Type of data set: physicochemical. An excerpt:
Commercially obtained Evan's blue dye was used as a surrogate marker for an anionic drug in hydrogel testing. It has a molecular weight of 961.8 g/mole and has four negative charges at pH 7 due to four sulfonate groups in the structure. Its visible light absorbance at 605 nm provides an easy way to monitor the concentration of the dye when exposed to the hydrogel in solution.
FASSIF buffer was created by adding 41.65 g of FASSIF buffer concentrate (Biorelevant Media, code FaSSIF) to 961.1 g DI water and stirred until completely mixed. Evans Blue solution was created by adding Evans Blue to approximately half of the FASSIF solution such that the final concentration of the media is 0.125 mg/mL Evans Blue.
5 mL of Evans Blue solution was added to a 15 mL centrifuge tube (EB Tube). 5 mL of FASSIF buffer (without Evans Blue) was added to another 15 mL tube (Background Tube). 200 mg of sub-63 um hydrogel #12.035 was added to both tubes. Vortexed tubes until fully mixed and placed both tubes on rocker plate for 15 minutes. After 15 minutes, both tubes were centrifuged at 3000 g for 1 minute. (N=3) 20 μL samples were extracted from the supernatant of both tubes and diluted into 180 μL of DI water in 96-well UV-clear plate. […] The plate was read for absorbance at 605 nm.
The absorbance reading samples from each group were averaged. […]

A short description of data set [2]: Exclusion or binding of ionic agents by Hydrogel #3.02, exterior fluid concentration by UV absorbance. Type of data set: physicochemical. As for the experimental part: Sodium caprate (sodium decanoate) is a known intestinal permeation enhancer with a negative charge (negative charge on the caprate). Sodium caprate (280 mg) was dissolved in 5 mL of modified pH 7 FASSIF buffer.
The intestinal permeation enhancer, sodium caprate (280 mg) was added.
Octreotide (as octreotide acetate) is an FDA approved therapeutic peptide with a molecular weight of 1019 g/mole and a net positive charge at pH below 8 (isoelectric point of octreotide=8.5). Octreotide (5 mg) was dissolved in 5 mL of modified FASSIF buffer at pH 7 (resulting in a starting concentration of 1 mg/mL).
Lanreotide is an FDA approved therapeutic peptide with a molecular weight of 1096 g/mole and a net positive charge at pH below 8. Lanreotide (5 mg) was dissolved in 5 mL of modified FASSIF buffer at pH 7.
Lanreotide is an FDA approved therapeutic peptide with a molecular weight of 1096 g/mole and a net positive charge at pH below 8. Lanreotide (5 mg) was dissolved in 5 mL of deionized water.

The conditions of data set [3]: published values; cited from earlier work.

Consider `Cc1cc(-c2ccc(/N=N/c3ccc4c(S(=O)(=O)O)cc(S(=O)(=O)O)c(N)c4c3O)c(C)c2)ccc1/N=N/c1ccc2c(S(=O)(=O)O)cc(S(=O)(=O)O)c(N)c2c1O` [Evans Blue], for which, in data set [1], the “relative concentration of the dye as hydrogel is added” value is given as “increasing concentration”.

Consider `CC(C)[C@@H]1NC(=O)[C@H](CCCCN)NC(=O)[C@@H](Cc2c[nH]c3ccccc23)NC(=O)[C@H](Cc2ccc(O)cc2)NC(=O)[C@@H](NC(=O)[C@H](N)Cc2ccc3ccccc3c2)CSSC[C@@H](C(=O)N[C@H](C(N)=O)[C@@H](C)O)NC1=O` [Lanreotide], for which the “concentration in the exterior fluid” value is “less than 0.05 mg/mL” in data set [2] (5 mg in 5 mL deionized water, Hydrogel #3.02 300 mg, after 25 minutes) and about 300 µg/mL in data set [2] (5 mg in 5 mL modified FASSIF pH 7, Hydrogel #3.02 300 mg, after 25 minutes).

`C[C@@H](O)[C@@H]1NC(=O)[C@H](CCCCN)NC(=O)[C@@H](Cc2c[nH]c3ccccc23)NC(=O)[C@H](Cc2ccccc2)NC(=O)[C@@H](NC(=O)[C@H](N)Cc2ccccc2)CSSC[C@@H](C(=O)N[C@H](CO)[C@@H](C)O)NC1=O` [Octreotide]: the “concentration in the exterior fluid” value in data set [2] (5 mg in 5 mL modified FASSIF pH 7 (start 1 mg/mL), Hydrogel #3.02 300 mg, after 10 minutes) was “less than 0.8 mg/mL”.

As to `CCCCCCCCCC(=O)[O-].[Na+]` [Sodium caprate, sodium decanoate], the “concentration of caprate in the exterior fluid relative to initial concentration” value in data set [2] (280 mg in 5 mL modified pH 7 FASSIF, Hydrogel #3.02 300 mg) is ~1.4 times the initial concentration.

As a reminder, the pKa is the negative logarithm of the acid dissociation constant. In the case of `CCS(=O)(=O)O` [ethanesulfonic acid], the pKa in data set [3] is on record as −1.68.

`COS(=O)(=O)O` [methanesulfate]: in data set [3], the pKa is on record as −3.4.

Turning to `CCCN` [propylamine], the pKa in data set [3] is given as about 10.7.
